Measured values taken from patent US20250230193A1, “CYCLIC COMPOUND HAVING SELECTIVE KRAS INHIBITORY EFFECT ON HRAS AND NRAS” (CHUGAI SEIYAKU KABUSHIKI KAISHA, priority 2022, published 2025).

What was measured:
[1] = target: GDP-bound HRAS wild-type protein (Homo sapiens, UniProt P01112); experiment: Binding to HRAS by surface plasmon resonance (SPR), Single Cycle Kinetics; settings: KD ratio HRAS/KRAS, SPR
[2] = target: GDP-bound NRAS wild-type protein (Homo sapiens, UniProt P01111); experiment: Binding to NRAS by surface plasmon resonance (SPR), Single Cycle Kinetics; settings: KD ratio NRAS/KRAS, SPR
Chain of GDP-bound NRAS wild-type protein (P01111 whole entry): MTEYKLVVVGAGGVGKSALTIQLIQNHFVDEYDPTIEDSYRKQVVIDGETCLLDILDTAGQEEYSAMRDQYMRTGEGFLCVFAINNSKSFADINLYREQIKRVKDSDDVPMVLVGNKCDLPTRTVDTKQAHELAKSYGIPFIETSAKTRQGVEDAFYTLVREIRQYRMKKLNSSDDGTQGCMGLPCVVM

Chain of GDP-bound HRAS wild-type protein (P01112 whole entry): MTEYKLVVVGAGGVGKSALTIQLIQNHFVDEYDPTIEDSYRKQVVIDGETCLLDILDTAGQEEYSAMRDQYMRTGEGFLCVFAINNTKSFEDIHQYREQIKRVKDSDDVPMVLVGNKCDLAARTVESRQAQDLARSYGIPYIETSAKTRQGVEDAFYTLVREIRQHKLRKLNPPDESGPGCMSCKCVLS

Row | Structure (SMILES) | HRAS/KRAS (ratio of KD value with respect to GDP-bound HRAS wild-type protein to KD value with respect to KRAS) [1] | NRAS/KRAS (ratio of KD value with respect to GDP-bound NRAS wild-type protein to KD value with respect to KRAS) [2]
1 | CCO[C@@H]1C[C@H]2C(=O)NC3(CCC3)C(=O)N(C)[C@@H](C3CCCC3)C(=O)N(CCC3CCC3)[C@H](C(=O)N3CCOCC3)CC(=O)N(C)[C@@H](CC(C)C)C(=O)N[C@@H]([C@@H](C)CC)C(=O)N(C)CC(=O)N(C)[C@H]3CCCCCN(C3=O)[C@@H](Cc3ccc(C(F)(F)F)cc3)C(=O)N(C)CC(=O)N[C@@H](CCc3cc(F)c(C(F)(F)F)c(F)c3)C(=O)N2C1 [PP0640] | B (a compound having 3 or more and less than 10 is denoted as B) | B (a compound having 3 or more and less than 10 is denoted as B)
2 | CCO[C@@H]1C[C@H]2C(=O)NC3(CCC3)C(=O)N(C)[C@@H](C3CCCC3)C(=O)N(CCC3CCCC3)[C@H](C(=O)N3CCOCC3)CC(=O)N(C)[C@@H](CC(C)C)C(=O)N[C@@H]([C@@H](C)CC)C(=O)N(C)CC(=O)N(C)[C@H]3CCCCCN(C3=O)[C@@H](Cc3ccc(C(F)(F)F)cc3)C(=O)N(C)CC(=O)N[C@@H](CCc3cc(F)c(C(F)(F)F)c(F)c3)C(=O)N2C1 [PP0641] | A (a compound having 10 or more and less than 20 is denoted as A) | A (a compound having 10 or more and less than 20 is denoted as A)
3 | CCO[C@@H]1C[C@H]2C(=O)NC3(CCC3)C(=O)N(C)[C@@H](C3CCCC3)C(=O)N(CCc3ccccc3)[C@H](C(=O)N3CCOCC3)CC(=O)N(C)[C@@H](CC(C)C)C(=O)N[C@@H]([C@@H](C)CC)C(=O)N(C)CC(=O)N(C)[C@H]3CCCCCN(C3=O)[C@@H](Cc3ccc(C(F)(F)F)cc3)C(=O)N(C)CC(=O)N[C@@H](CCc3cc(F)c(C(F)(F)F)c(F)c3)C(=O)N2C1 [PP0642] | B (a compound having 3 or more and less than 10 is denoted as B) | B (a compound having 3 or more and less than 10 is denoted as B)
4 | CCO[C@@H]1C[C@H]2C(=O)NC3(CCC3)C(=O)N(C)[C@@H](C3CCCC3)C(=O)N(CC)[C@H](C(=O)N(C)C)CC(=O)N(C)[C@@H](CC)C(=O)N[C@@H]([C@@H](C)CC)C(=O)N(C)CC(=O)N(C)[C@H]3CCCCN(C3=O)[C@@H](Cc3ccc(C(F)(F)F)cc3)C(=O)N(C)CC(=O)N[C@@H](CCc3cc(F)c(C(F)(F)F)c(F)c3)C(=O)N2C1 [PP0643] | B (a compound having 3 or more and less than 10 is denoted as B) | C (A compound having a KD ratio of 0.1 or more and less than 3 is denoted as C)
5 | CCCN1C(=O)[C@H](C2CCCC2)N(C)C(=O)C2(CCC2)NC(=O)[C@@H]2C[C@@H](OCC)CN2C(=O)[C@H](CCc2cc(F)c(C(F)(F)F)c(F)c2)NC(=O)CN(C)C(=O)[C@H](Cc2ccc(C(F)(F)F)cc2)N2CCCC[C@@H](C2=O)N(C)C(=O)CN(C)C(=O)[C@H]([C@@H](C)CC)NC(=O)[C@H](CC)N(C)C(=O)C[C@H]1C(=O)N(C)C [PP0644] | B (a compound having 3 or more and less than 10 is denoted as B) | C (A compound having a KD ratio of 0.1 or more and less than 3 is denoted as C)
6 | CCO[C@@H]1C[C@H]2C(=O)NC3(CCC3)C(=O)N(C)[C@@H](C3CCCC3)C(=O)N(CCC3CCC3)[C@H](C(=O)N(C)C)CC(=O)N(C)[C@@H](CC)C(=O)N[C@@H]([C@@H](C)CC)C(=O)N(C)CC(=O)N(C)[C@H]3CCCCN(C3=O)[C@@H](Cc3ccc(C(F)(F)F)cc3)C(=O)N(C)CC(=O)N[C@@H](CCc3cc(F)c(C(F)(F)F)c(F)c3)C(=O)N2C1 [PP0645] | B (a compound having 3 or more and less than 10 is denoted as B) | B (a compound having 3 or more and less than 10 is denoted as B)
7 | CCO[C@@H]1C[C@H]2C(=O)NC3(CCC3)C(=O)N(C)[C@@H](C3CCCC3)C(=O)N(CCC3CCCC3)[C@H](C(=O)N(C)C)CC(=O)N(C)[C@@H](CC)C(=O)N[C@@H]([C@@H](C)CC)C(=O)N(C)CC(=O)N(C)[C@H]3CCCCN(C3=O)[C@@H](Cc3ccc(C(F)(F)F)cc3)C(=O)N(C)CC(=O)N[C@@H](CCc3cc(F)c(C(F)(F)F)c(F)c3)C(=O)N2C1 [PP0646] | B (a compound having 3 or more and less than 10 is denoted as B) | C (A compound having a KD ratio of 0.1 or more and less than 3 is denoted as C)
8 | CCO[C@@H]1C[C@H]2C(=O)NC3(CCC3)C(=O)N(C)[C@@H](C3CCCC3)C(=O)N(CCc3ccccc3)[C@H](C(=O)N(C)C)CC(=O)N(C)[C@@H](CC)C(=O)N[C@@H]([C@@H](C)CC)C(=O)N(C)CC(=O)N(C)[C@H]3CCCCN(C3=O)[C@@H](Cc3ccc(C(F)(F)F)cc3)C(=O)N(C)CC(=O)N[C@@H](CCc3cc(F)c(C(F)(F)F)c(F)c3)C(=O)N2C1 [PP0647] | B (a compound having 3 or more and less than 10 is denoted as B) | C (A compound having a KD ratio of 0.1 or more and less than 3 is denoted as C)
9 | CCO[C@@H]1C[C@H]2C(=O)NC3(CCC3)C(=O)N(C)[C@@H](C3CCCC3)C(=O)N(CC)[C@H](C(=O)N3CCOCC3)CC(=O)N(C)[C@@H](CC(C)C)C(=O)N[C@@H]([C@@H](C)CC)C(=O)N(C)CC(=O)N(C)[C@H]3CCCCN(C3=O)[C@@H](Cc3ccc(C(F)(F)F)cc3)C(=O)N(C)CC(=O)N[C@@H](CCc3cc(F)c(C(F)(F)F)c(F)c3)C(=O)N2C1 [PP0648] | B (a compound having 3 or more and less than 10 is denoted as B) | B (a compound having 3 or more and less than 10 is denoted as B)
10 | CCCN1C(=O)[C@H](C2CCCC2)N(C)C(=O)C2(CCC2)NC(=O)[C@@H]2C[C@@H](OCC)CN2C(=O)[C@H](CCc2cc(F)c(C(F)(F)F)c(F)c2)NC(=O)CN(C)C(=O)[C@H](Cc2ccc(C(F)(F)F)cc2)N2CCCC[C@@H](C2=O)N(C)C(=O)CN(C)C(=O)[C@H]([C@@H](C)CC)NC(=O)[C@H](CC(C)C)N(C)C(=O)C[C@H]1C(=O)N1CCOCC1 [PP0649] | B (a compound having 3 or more and less than 10 is denoted as B) | C (A compound having a KD ratio of 0.1 or more and less than 3 is denoted as C)
11 | CCO[C@@H]1C[C@H]2C(=O)NC3(CCC3)C(=O)N(C)[C@@H](C3CCCC3)C(=O)N(CCC3CCC3)[C@H](C(=O)N3CCOCC3)CC(=O)N(C)[C@@H](CC(C)C)C(=O)N[C@@H]([C@@H](C)CC)C(=O)N(C)CC(=O)N(C)[C@H]3CCCCN(C3=O)[C@@H](Cc3ccc(C(F)(F)F)cc3)C(=O)N(C)CC(=O)N[C@@H](CCc3cc(F)c(C(F)(F)F)c(F)c3)C(=O)N2C1 [PP0650] | B (a compound having 3 or more and less than 10 is denoted as B) | C (A compound having a KD ratio of 0.1 or more and less than 3 is denoted as C)
